The values that follow come from ChEMBL document CHEMBL4017513, “Structure-Activity Relationships of Potent, Targeted Covalent Inhibitors That Abolish Both the Transamidation and GTP Binding Activities of Human Tissue Transglutaminase” (J Med Chem, 2017).

As a reminder, the EC50 is the midpoint of the concentration-response curve. Read a high EC50 as a need for much substance.

Some results are limits rather than exact numbers.

Assay [1] is described as follows: Inhibition of guinea pig liver TG2 using Z-Gln-Gly/DMPDA as substrate preincubated for 3 mins followed by protein addition. Also on record: species or system Cavia porcellus.
In assay [2] the target is T1, Protein-glutamine gamma-glutamyltransferase K (Homo sapiens) (UniProt P22735).
T1 sequence (whole entry): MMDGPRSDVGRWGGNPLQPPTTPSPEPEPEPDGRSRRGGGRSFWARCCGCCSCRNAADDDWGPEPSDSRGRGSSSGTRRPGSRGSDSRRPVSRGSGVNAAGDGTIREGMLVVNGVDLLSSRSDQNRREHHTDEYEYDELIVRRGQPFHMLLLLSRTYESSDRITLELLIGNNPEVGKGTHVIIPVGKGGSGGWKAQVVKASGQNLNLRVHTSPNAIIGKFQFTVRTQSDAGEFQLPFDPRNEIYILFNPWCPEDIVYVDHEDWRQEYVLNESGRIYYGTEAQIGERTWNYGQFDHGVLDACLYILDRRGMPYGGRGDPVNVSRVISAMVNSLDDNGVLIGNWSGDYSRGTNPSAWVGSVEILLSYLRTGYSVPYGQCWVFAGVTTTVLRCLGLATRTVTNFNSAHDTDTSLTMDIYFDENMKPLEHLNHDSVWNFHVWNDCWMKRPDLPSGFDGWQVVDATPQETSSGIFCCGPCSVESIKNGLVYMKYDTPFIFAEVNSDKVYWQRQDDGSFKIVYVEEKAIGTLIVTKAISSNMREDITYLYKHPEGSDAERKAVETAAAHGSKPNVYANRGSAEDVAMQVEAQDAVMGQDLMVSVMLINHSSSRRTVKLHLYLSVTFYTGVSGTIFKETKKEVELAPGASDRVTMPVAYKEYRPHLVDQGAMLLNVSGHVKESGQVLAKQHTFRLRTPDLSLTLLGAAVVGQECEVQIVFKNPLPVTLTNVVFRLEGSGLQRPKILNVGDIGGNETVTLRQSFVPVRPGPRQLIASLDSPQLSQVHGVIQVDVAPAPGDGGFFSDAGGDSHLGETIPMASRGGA
Kind of assay: Inactivation of human TG1 using AL5 as substrate by colorimetric assay.

The target of assay [3] is T2, Protein-glutamine gamma-glutamyltransferase E (Homo sapiens) (UniProt Q08188).
T2 sequence (whole entry): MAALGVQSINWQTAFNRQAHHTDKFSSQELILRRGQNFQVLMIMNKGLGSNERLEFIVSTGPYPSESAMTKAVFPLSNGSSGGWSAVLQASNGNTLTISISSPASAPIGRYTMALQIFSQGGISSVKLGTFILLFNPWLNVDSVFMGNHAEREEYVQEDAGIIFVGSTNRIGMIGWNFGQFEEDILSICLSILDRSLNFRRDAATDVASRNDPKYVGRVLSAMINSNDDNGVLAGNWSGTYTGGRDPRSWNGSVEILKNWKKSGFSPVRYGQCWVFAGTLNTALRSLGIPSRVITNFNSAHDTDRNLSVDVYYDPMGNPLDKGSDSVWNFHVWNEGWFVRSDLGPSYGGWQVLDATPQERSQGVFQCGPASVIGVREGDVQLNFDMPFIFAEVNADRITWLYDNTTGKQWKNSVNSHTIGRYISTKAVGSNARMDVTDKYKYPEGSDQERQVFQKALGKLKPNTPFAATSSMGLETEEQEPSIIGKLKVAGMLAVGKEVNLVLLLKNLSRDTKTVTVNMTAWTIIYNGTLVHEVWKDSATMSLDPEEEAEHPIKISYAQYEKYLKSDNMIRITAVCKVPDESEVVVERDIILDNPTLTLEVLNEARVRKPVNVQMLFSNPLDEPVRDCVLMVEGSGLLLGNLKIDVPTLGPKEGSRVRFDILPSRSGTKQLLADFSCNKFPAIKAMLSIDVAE
The experiment in a line: Inactivation of activated human TG3 assessed as rate constant of enzyme inactivation using FRET- quenched A101 as substrate by fluorescence assay.

For assay [4], the target named is T3, Protein-glutamine gamma-glutamyltransferase (Homo sapiens) (UniProt P21980).
T3 sequence (whole entry): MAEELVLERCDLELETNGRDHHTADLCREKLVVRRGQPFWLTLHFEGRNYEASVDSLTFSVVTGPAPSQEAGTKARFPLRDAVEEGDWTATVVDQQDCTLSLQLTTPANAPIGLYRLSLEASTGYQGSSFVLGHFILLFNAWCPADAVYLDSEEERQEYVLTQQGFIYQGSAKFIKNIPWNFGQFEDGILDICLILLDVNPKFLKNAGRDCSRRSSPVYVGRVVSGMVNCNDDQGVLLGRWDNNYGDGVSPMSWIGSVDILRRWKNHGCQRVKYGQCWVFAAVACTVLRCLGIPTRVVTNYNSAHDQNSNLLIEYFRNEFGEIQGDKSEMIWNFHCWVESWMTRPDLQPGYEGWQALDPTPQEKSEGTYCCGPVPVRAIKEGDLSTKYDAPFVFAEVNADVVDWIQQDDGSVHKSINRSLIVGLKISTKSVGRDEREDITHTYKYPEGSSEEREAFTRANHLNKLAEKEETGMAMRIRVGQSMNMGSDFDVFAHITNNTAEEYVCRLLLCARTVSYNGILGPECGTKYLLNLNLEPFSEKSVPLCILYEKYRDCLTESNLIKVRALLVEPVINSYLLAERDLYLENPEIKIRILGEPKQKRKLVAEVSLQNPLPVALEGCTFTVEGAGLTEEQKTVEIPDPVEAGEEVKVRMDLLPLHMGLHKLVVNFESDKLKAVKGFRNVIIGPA
Kind of assay: Ratio of kinact to Ki for human TG2 by colorimetric assay.

In assay [5] the target is T3, Protein-glutamine gamma-glutamyltransferase (Homo sapiens). The experiment in a line: (§1) Irreversible inhibition of human TG2 using AL5 as substrate by colorimetric assay.
The target of assay [6] is T4, Protein-glutamine gamma-glutamyltransferase (Homo sapiens, UniProt P21980).
T4 sequence (P21980 whole entry): T3 sequence (whole entry)
The assay is described as §1.

For the next assay, the species on record is Homo sapiens. The experiment in a line: Selectivity ratio of Kobs for human TG2 to Kobs for activated human TG3.
A short description of assay [7]: Inhibition of human ECS cells invasion by using Engelbreth-Holm-Swarm mouse tumor matrigel measured after 18 hrs by DAPI staining-based flourescence microscopy. The assay is classed as functional, cell-based.

In the case of `C=CC(=O)NCCCC[C@H](NC(=O)OCc1ccccc1)C(=O)NCCOCCOCCNS(=O)(=O)c1cccc2c(N(C)C)cccc12`, the Ki in assay [1] came out at 29 µM; in assay [6], 33.9 µM. Further, the K in assay [2] came to 78.9 ×10⁻³ /min; in assay [3], 1.01 ×10⁻³ /min. Moreover, the Ratio in assay [4] turned out to be 76.4 ×10³ /M/min. Moreover, the Kinact in assay [5] worked out at 2.6 min⁻¹. For the same compound, the Selectivity ratio in the assay filed under Homo sapiens came to 390. This compound also had an EC50 in assay [7] of more than 20 µM.
